In patent publication US9034886B2, “4-aminoquinazoline derivatives and uses thereof” (Shanghai Institute of Pharmaceutical Industry, priority 2011, dated 2015):
Read-outs that look alike come from different tables or passages of the source.

How the values were obtained:
[1] = test system: K562 human chronic myelogenous leukemia cells; assay: In vitro anti-proliferative effect, CCK-8 method, K562; type: cell-based; settings: Homo sapiens, K562
Summary of the method: (§1)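 K562 and Hut78 cells exposed to compounds at 100 μM and 10 μM. Percent inhibition of proliferation determined by CCK-8 read-out.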

HDACs = assay: In vitro inhibition of HDACs (HDAC Inhibitor Drug Screening Kit, Biovision K340-100); type: biochemical
Method: The in vitro inhibitory activities of the compounds towards HDACs were tested according to the instructions in the HDAC Inhibitor Drug Screening Kit (Biovision/Catalog #K340-100).
(1) The compounds to be tested were each individually prepared as 2 mM, 200 μM and 40 μM solutions and their inhibitory activities at these concentrations were tested.

[2] = Preliminary pharmacokinetics; settings: in vivo, rat
HDAC1 = HDAC1 (Homo sapiens (Human), UniProt Q13547); assay: In vitro inhibition of subtype HDAC1 (HDAC1 Inhibitor Drug Screening Kit, Biovision); type: biochemical; settings: read-out: % Inhibition towards HDAC1
Method: The in vitro inhibitory activities of the compounds towards the subtype HDAC1 were tested according to the instructions in the HDAC1 Inhibitor Drug Screening Kit (Biovision).
(1) The compounds to be tested were each individually prepared as 10 μM and 1 μM solutions and their inhibitory activities at these concentrations were tested.
Each dilution sample was placed in two wells and the enzyme inhibition IC50 of the compound was tested.

[3] = test system: MDA-MB-435s human breast cancer cells; assay: In vitro anti-proliferative effect, CCK-8 method, MDA-MB-435s; type: cell-based; settings: Homo sapiens, MDA-MB-435S
Summary of the method: (§2)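 Cells treated with compounds at 100 μM and 10 μM. Percent inhibition of proliferation measured by CCK-8.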

hERG potassium channel = hERG potassium channel (Homo sapiens (Human), UniProt Q12809); assay: Effects on hERG potassium channel; type: cell-based
[4] = test system: Hep3B2.1-7 human liver cancer cells; assay: In vitro anti-proliferative effect, CCK-8 method, Hep3B; type: cell-based; settings: Homo sapiens
Summary of the method: as §2

[5] = test system: A549 human lung cancer cells; assay: In vitro anti-proliferative effect, CCK-8 method, A549; type: cell-based; settings: Homo sapiens, A549
Summary of the method: as §2

[6] = test system: Hut78 T lymphocytic leukemia cells; assay: In vitro anti-proliferative effect, CCK-8 method, Hut78; type: cell-based; settings: Homo sapiens, HuT78
Summary of the method: as §1

[7] = test system: PC-3 human prostate cancer; assay: In vitro anti-proliferative effect, CCK-8 method, PC-3; type: cell-based; settings: Homo sapiens
Summary of the method: as §2

[8] = test system: Colo320 human colorectal cancer cell lines; assay: In vitro anti-proliferative effect, CCK-8 method, Colo320; type: cell-based; settings: Homo sapiens, COLO 320
Summary of the method: as §2

[9] = Maximum tolerance dose through intragastrical administration; type: in vivo; settings: mice, administrated intragastrically
Summary of the method: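 ICR mice (8˜20 g, both sexes, 10 per group) fasted 6 h, then dosed once intragastrically at 0.3 ml/10 g. Physical signs and deaths recorded at 1, 2 and 4 h, then daily with body weight over 14 days; dead animals necropsied with pathology on suspicious organs.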

human PC-3 tumors = assay: Human PC-3 tumors transplanted in nude mice; type: in vivo; settings: 50 mg/kg
[10] = test system: PANC-1 human pancreatic cancer cells; assay: In vitro anti-proliferative effect, CCK-8 method, PANC-1; type: cell-based; settings: Homo sapiens, PANC-1
Summary of the method: as §2

[11] = test system: Jurkat E6-1 human T-cell lymphoma; assay: In vitro anti-proliferative effect, CCK-8 method, Jurkat E6-1; type: cell-based; settings: Homo sapiens, Jurkat E6.1
Summary of the method: as §2

Sequence of HDAC1 (Q13547 whole entry): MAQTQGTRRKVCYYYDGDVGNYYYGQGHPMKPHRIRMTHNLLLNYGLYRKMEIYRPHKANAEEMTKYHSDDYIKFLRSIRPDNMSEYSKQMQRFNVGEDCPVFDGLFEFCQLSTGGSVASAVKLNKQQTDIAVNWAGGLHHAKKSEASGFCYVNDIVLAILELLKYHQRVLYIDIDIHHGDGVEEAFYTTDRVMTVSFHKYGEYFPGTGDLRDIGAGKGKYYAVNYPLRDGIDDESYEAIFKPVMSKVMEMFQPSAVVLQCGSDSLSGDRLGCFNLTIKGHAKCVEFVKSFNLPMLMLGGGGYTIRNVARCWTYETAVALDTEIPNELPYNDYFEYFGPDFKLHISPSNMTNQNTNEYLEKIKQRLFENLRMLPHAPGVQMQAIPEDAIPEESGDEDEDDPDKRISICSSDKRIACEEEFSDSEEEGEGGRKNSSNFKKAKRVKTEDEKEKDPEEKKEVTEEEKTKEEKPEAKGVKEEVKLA
Sequence of hERG potassium channel (Q12809 whole entry): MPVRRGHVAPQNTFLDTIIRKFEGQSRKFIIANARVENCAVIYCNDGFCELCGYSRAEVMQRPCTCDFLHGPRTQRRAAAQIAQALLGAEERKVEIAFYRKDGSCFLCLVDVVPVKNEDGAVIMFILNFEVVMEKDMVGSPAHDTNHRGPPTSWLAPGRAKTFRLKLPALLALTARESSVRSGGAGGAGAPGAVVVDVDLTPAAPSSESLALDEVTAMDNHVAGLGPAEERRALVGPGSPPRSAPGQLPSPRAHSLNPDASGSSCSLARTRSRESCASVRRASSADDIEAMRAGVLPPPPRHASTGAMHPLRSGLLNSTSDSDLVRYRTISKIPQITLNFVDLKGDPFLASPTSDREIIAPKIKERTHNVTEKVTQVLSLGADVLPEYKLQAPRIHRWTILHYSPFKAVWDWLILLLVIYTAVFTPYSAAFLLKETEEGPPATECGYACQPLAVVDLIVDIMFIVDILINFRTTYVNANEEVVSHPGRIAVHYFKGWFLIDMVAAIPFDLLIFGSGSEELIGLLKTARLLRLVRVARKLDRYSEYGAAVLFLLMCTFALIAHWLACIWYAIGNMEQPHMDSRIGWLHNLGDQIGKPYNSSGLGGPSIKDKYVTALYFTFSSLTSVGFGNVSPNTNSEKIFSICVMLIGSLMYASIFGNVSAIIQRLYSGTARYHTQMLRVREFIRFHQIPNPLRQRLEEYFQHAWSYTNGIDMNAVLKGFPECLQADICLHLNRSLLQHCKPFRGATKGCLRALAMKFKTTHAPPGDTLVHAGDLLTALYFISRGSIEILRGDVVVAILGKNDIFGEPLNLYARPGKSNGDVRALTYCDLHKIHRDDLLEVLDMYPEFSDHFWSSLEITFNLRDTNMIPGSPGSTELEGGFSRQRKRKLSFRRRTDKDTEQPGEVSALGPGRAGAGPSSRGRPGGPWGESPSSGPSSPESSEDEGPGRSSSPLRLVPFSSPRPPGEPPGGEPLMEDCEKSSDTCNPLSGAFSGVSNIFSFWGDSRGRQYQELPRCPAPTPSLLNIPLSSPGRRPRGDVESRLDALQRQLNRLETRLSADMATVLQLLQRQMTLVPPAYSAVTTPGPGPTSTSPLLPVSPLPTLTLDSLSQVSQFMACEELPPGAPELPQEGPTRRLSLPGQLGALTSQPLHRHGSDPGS

SMILES: COc1cccc2c(Nc3ccc(C(=O)Nc4ccccc4N)cc3)ncnc12 [Compound V-9, N-(2-aminophenyl)-4-(8-methoxy-quinazoline-4-amino)benzamide]
- IC50 [1]: 19.9 µM
- inhibition at 10 µM ([1]; 10 μM): -2.8%
- inhibition at 100 µM ([1]; 100 μM): 30.3%
- IC50 (HDACs): 4.91 µM
- Inhibition percentage (%) towards HDACs (HDACs; 40 μM): 1.9%
- Inhibition percentage (%) towards HDACs (HDACs; 200 μM): 7.8%
- Inhibition percentage (%) towards HDACs (HDACs; 2 mM): 50.0%
- half-life ([2]; iv, 2 mg/kg, i.v., read-out: Intravenous half-life (converted)): 1.27 h
- bioavailability ([2]; oral): 19%
- half-life ([2]; oral, read-out: Oral half-life (converted)): 4.53 h
- inhibition at 1 µM (HDAC1; 1 μM): 33.8%
- inhibition at 10 µM (HDAC1; 10 μM): 58.3%
- inhibition at 10 µM ([3]; 10 μM): -11.9%
- inhibition at 100 µM ([3]; 100 μM): 11.8%
- inhibition at 10 µM (hERG potassium channel; human, hERG potassium current, 10 μM, read-out: Maximum inhibition percentage at 10 μM (%)): 21.5 ± 0.4%
- IC50 (hERG potassium channel; read-out: Half inhibition concentration for the effect on hERG potassium current, IC50): > 10 µM
- IC50 ([4]; Hep3B): 52.2 µM
- inhibition at 10 µM ([4]; Hep3B cell strain, compound at 10 μM, CCK-8 method): 27%
- inhibition at 100 µM ([4]; Hep3B cell strain, compound at 100 μM, CCK-8 method): 26.2%
- IC50 [5]: 29.9 µM
- inhibition at 10 µM ([5]; 10 μM): 24.6%
- inhibition at 100 µM ([5]; 100 μM): 42.3%
- IC50 [6]: 0.231 µM
- inhibition at 10 µM ([6]; 10 μM, read-out: Hut-78 (inhibition %)): 10.8%
- inhibition at 100 µM ([6]; 100 μM, read-out: Hut-78 (inhibition %)): 94%
- IC50 [7]: 12.2 µM
- inhibition at 10 µM ([7]; PC-3 cell strain, compound at 10 μM, CCK-8 method): 5.1%
- inhibition at 100 µM ([7]; PC-3 cell strain, compound at 100 μM, CCK-8 method): 19.3%
- IC50 [8]: 88.4 µM
- inhibition at 10 µM ([8]; Colo320 cell strain, compound at 10 μM, CCK-8 method): 4.4%
- inhibition at 100 µM ([8]; Colo320 cell strain, compound at 100 μM, CCK-8 method): 4.2%
- maximum tolerance dose [9]: over 5000 mg/kg
- tumor inhibition %, PC-3 (human prostate cancer) (human PC-3 tumors): 36.97%
- deaths, PC-3 model (human PC-3 tumors; 8 mice in each group): no death
- inhibition at 10 µM ([10]; 10 μM): 22.3%
- inhibition at 100 µM ([10]; 100 μM): 26.4%
- IC50 [11]: 12.4 µM
- inhibition at 10 µM ([11]; 10 μM): 0.9%
- inhibition at 100 µM ([11]; 100 μM): 22.8%
